Assay results as given in ChEMBL document CHEMBL1150174, “Lyngbyaloside B, a new glycoside macrolide from a Palauan marine cyanobacterium, Lyngbya sp” (J Nat Prod, 2002).

Key:
KB = experiment: Cytotoxicity against human KB cells; assay type: functional, cell-based
LoVo = experiment: Cytotoxicity against human LoVo cells; assay type: functional, cell-based

CO[C@@H]1[C@@H](OC)[C@@H](O)[C@H](O[C@H]2C[C@@]3(O)CC(=O)O[C@](C)(CC/C=C/C=C/Br)C[C@@H](O)[C@H](C)CC[C@H](O3)[C@@H]2C)O[C@H]1C [LYNGBYALOSIDE B]
IC50 (KB): 4.3 µM | IC50 (LoVo): 15 µM
